These results are taken from patent US20140322708A1, “METHOD FOR MEASURING SOMATIC DNA […]” (Albert Einstein College of Medicine of Yeshiva University, priority 2011, published 2014).

Values joined by “and” are separate entries in the source; they are usually repeats but may differ in a detail not shown here. Equal entries are not always repeated.

The test system of data set [1] is S2 cells. The experiment in a line: Single cell whole genome sequencing for somatic point mutations after ENU treatment. The data set is classed as cell-based, Drosophila melanogaster. How it is done:
To assess somatic mutation spectra in single cells in a genome-wide manner S2 cells derived from Drosophila melanogaster, an organism with a genome size of 160 MB, were used. The strategy followed is outlined in FIG. 1B. Individual single cells were picked from an S2 cell culture 72-h after treatment with 4.2 mM of the powerful point mutagen N-ethyl-N-nitrosourea (ENU) or mock treated with solvent (control). At 72-h post-treatment virtually no lesions remain (6,7) and cell survival is greater than 90% (8) (results not shown). Each single cell was lysed and subjected to whole genome amplification (WGA) using an optimized multiple displacement amplification (MDA) protocol (see Methods and Materials)(9). The amplified cells were first screened for locus dropout by qPCR using primer pairs distributed over the different chromosomes (FIG. 5). DNA from the cells displaying the least amount of dropout was fragmented and processed to generate sequencing libraries for the Illumina HiSeq platform. In this way libraries of three untreated and three ENU-treated cells were prepared. For comparison, a similar library was made from unamplified total genomic DNA from the untreated S2 cell population. To identify all possible mutations, either spontaneously formed in the unexposed, control cells or induced by ENU in the treated cells, the libraries were sequenced from both ends, generating between 50-100 million 108-bp paired-end reads per cell. Alignment to the Drosophila reference sequence (dm3) was performed using BWA (10), and post-processing was completed using the Genome Analysis Toolkit (GATK) (11). […] Since ENU is a point mutagen the subsequent analysis was based on this type of mutations only. The pipeline developed for somatic point mutation discovery is described in further detail in the Methods and Materials section. Briefly, aligned sequence data from the unamplified sample and a single cell was compared and all differences with the reference sequence were recorded as variants. Variants with sufficient coverage (20×) in both the unamplified and the single cell sample were classified as “germline” or “somatic” based on whether the variant was shared between the two samples. Somatic variants were further processed using a strand-bias filter and were visually validated using the Integrative Genomics Viewer (IGV) (12).
Single cells were collected under an inverted microscope by hand-held capillaries, deposited in PCR tubes along with 2 μl of culture medium, and immediately frozen on dry ice. […] The reaction products were purified using AMPure XP magnetic beads (Agencourt, Beverly, Mass.) and the reaction yield was measured using the NanoDrop 1000 spectrophotometer (Nanodrop Technologies LLC, Wilmington, Del.). […]

Data set [2] deals with mouse embryonic fibroblast (MEF). The experiment in a line: Single cell reduced representation (MseI) sequencing for somatic point mutations after ENU treatment. Format: cell-based. How it is done:
Therefore, the procedure shown in FIG. 1B was slightly modified, using a reduced representation approach based on restriction enzyme digestion. For this purpose mouse embryonic fibroblast (MEF) populations were used either treated with 4.2 mM ENU or mock-treated with solvent only. Instead of preparing sequencing libraries directly using randomly fragmented DNA, whole genome amplified DNA was digested from two treated and two control MEFs, as well as unamplified genomic DNA from the MEF population, with MseI, a four-base cutter with a TTAA cleavage site. Following digestion an agarose gel size-selection was performed for fragments between 250-bp and 350-bp, corresponding to a target region of approximately 300 MB. The fragments were sequenced using 121-bp single-end reads. […] Due to the nature of the reduced representation library, the strand bias filter could not be used and therefore a more stringent mutant read frequency cutoff (>40%) was adopted. Out of the 300-MB target region, 220 MB (73%) had sufficient coverage (10×) in the unamplified control sample and 85-93 MB (39-42%) of the 220 MB overlapped with regions of sufficient coverage in the single MEFs. Due to the absence of a sufficient number of heterozygous SNPs in the MEF cell line, allele dropout was estimated using the distribution of mutant read frequencies found in the ENU-treated MEF cells.
Single cells were collected under an inverted microscope by hand-held capillaries, deposited in PCR tubes along with 2 μl of culture medium, and immediately frozen on dry ice. Cells were lysed and amplified using the REPLI-g UltraFast Mini kit (Qiagen, Santa Clara, Calif.) according to the manufacturer's instructions, but using an initial 30-min amplification at 30° C. followed by an 18-hour amplification at 35° C. The reaction products were purified using AMPure XP magnetic beads (Agencourt, Beverly, Mass.) and the reaction yield was measured using the NanoDrop 1000 spectrophotometer (Nanodrop Technologies LLC, Wilmington, Del.). Reactions with yield of greater than 1 μg were tested for locus dropout at eight loci using comparative Ct measurements from real-time PCR (StepOne Plus, Applied Biosystems, Foster City, Calif.) performed with Fast SYBR® Green Master Mix (Foster City, Calif.). Up to 5 μg of DNA from samples displaying the least biased amplification was used as input for Illumina libraries. DNA was either randomly fragmented (S2 cells) or digested (MEFs) with 50 U of Msei (NEB, Ipswich, Mass.). Digested DNA (MEFs) was end-repaired using Mung Bean Nuclease (NEB, Ipswich, Mass.) and then used as input for the Illumina library preparation. S2 libraries were size-selected to 475-525-bp and MEF libraries were size selected to 250-350-bp using agarose gel electrophoresis. […] The aligned sequence data was processed using genome analysis toolkit (GATK) (e.g., available at www.broadinstitute.org) to realign reads containing indels or a high entropy of mismatches, recalibrate the base quality scores, and to compute coverage data and statistics. Somatic point mutations and germline variation were scored using a pipeline composed of SAMtools mpileup command (e.g., available at samtools.sourceforge.net/mpileup.shtml), VarScan somatic command (e.g., available at varscan.sourceforge.net/somatic-calling.html) and a custom script to parse and filter the VarScan output. Somatic events found in multiple single cells were discarded, as were events found in at least one read in the unamplified control sample. […]

In data set [3] the test system is S2 cells. Kind of data set: Cell survival after ENU treatment. Format: cell-based, Drosophila melanogaster. As to conditions: 72-h post-treatment, 4.2 mM ENU. How it is done: To assess somatic mutation spectra in single cells in a genome-wide manner S2 cells derived from Drosophila melanogaster, an organism with a genome size of 160 MB, were used. The strategy followed is outlined in FIG. 1B. Individual single cells were picked from an S2 cell culture 72-h after treatment with 4.2 mM of the powerful point mutagen N-ethyl-N-nitrosourea (ENU) or mock treated with solvent (control). At 72-h post-treatment virtually no lesions remain (6,7) and cell survival is greater than 90% (8) (results not shown). Each single cell was lysed and subjected to whole genome amplification (WGA) using an optimized multiple displacement amplification (MDA) protocol (see Methods and Materials)(9). The amplified cells were first screened for locus dropout by qPCR using primer pairs distributed over the different chromosomes (FIG. 5). […] To identify all possible mutations, either spontaneously formed in the unexposed, control cells or induced by ENU in the treated cells, the libraries were sequenced from both ends, generating between 50-100 million 108-bp paired-end reads per cell. […] Briefly, aligned sequence data from the unamplified sample and a single cell was compared and all differences with the reference sequence were recorded as variants. […]

Data set [4] relates to S2 cells. Kind of data set: Reduced representation paired-end sequencing assay for genome rearrangements in bleomycin-treated cells. The data set is classed as cell-based, Drosophila melanogaster. The settings on record: bleomycin-treated S2 cells as compared to untreated cells. The protocol:
Genomic DNA from cultured mouse (embryonic fibroblasts; MEFs) and fly (Drosophila melanogaster embryo cell line; S2) cells was analyzed by paired-end (“PE”) sequencing after a restriction enzyme digestion (HindIII for mouse and PstI for fly) and size selection. The fly and mouse genomes are structured very differently, with the mouse genome consisting of close to 50% repetitive DNA and the fly genome only 3%. The libraries were sequenced using a paired-end kit on the Illumina® Genome Analyzer fix with a read length of 85 bp. […] Alterations in the distance between two PE reads relative to the distance predicted by the RefSeq indicate putative genome rearrangements. […] First, any read pairs that had mapping quality scores lower than 30 (e.g. see Li H, Ruan J, Durbin R. (2008) Mapping short DNA sequencing reads and calling variants using mapping quality scores. Genome Research 18:1851-1858, hereby incorporated by reference in its entirety, for mapping scores) were filtered out. This removed repeat-spanning reads with ambiguous placement on the reference genome. […]
It was reasoned that treatment of S2 cells with a clastogen should give rise to elevated frequencies of genome rearrangements. […] The frequencies of genome rearrangements were expressed per read pair. […]

Setting [5] is: single S2 cell, 72-h after treatment with 4.2 mM ENU.
[6] abbreviates: single MEF, treated with 4.2 mM ENU.

Take `CCN(N=O)C(N)=O` [ENU, N-ethyl-N-nitrosourea]: the “majority of the ENU-induced mutations (mutation spectrum)” value in the data set with S2 cells [1] (S2 cells) was “T->A, T->C and G->A mutations”; in data set [2] (MEF cells), “T->A, T->C and G->A mutations”. In addition, the “induction of point mutations” value in the data set on S2 cells [1] (on average in the exposed S2 cells vs control cells) is listed as 7.5 fold; in data set [2] (ENU-treated MEF cells vs control MEFs), 35 fold. In addition, the “Mutations per Mb” value in the data set with S2 cells [1] (setting [5]) was 3.27 and 2.54 and 3.18; in data set [2] (setting [6]), 3.97 and 3.91. Besides, the Point mutations is 938 and 482 and 690 in the data set with S2 cells [1] (setting [5]); 426 and 446 in data set [2] (setting [6]). Also, the “ENU-induced mutation frequency in MEF cells, higher than that found in the S2 cells” value in data set [2] (mutations per MB, MEF vs S2) came out at 30%. In addition, the cell survival entry in the data set with S2 cells [3] is on record as “greater than 90%”.

As to bleomycin, the “increase in genomic mutation frequency (genome rearrangements per read pair)” value in the data set on S2 cells [4] is given as “approximately 3 fold”.
